For series [1] the following is noted: in vivo; cited from earlier work.
The conditions of series [2]: cited from earlier work.
Series [3] can be described thus: Sedimentation / precipitation of theobromine in the filled product. The series is classed as physicochemical. To be noted: in the emulsions of Example 3. As for the experimental part:
2000 ml of conventional water based energy drink supplements were produced by blending all ingredients below, heating to 170 F and cooling to ambient temperature. About 30 ml of each composition were filled into HDPE plastic bottles. Example 1A contained 210 mg caffeine, 460 mg taurine, 120 mg N Acetyl L-Tyrosine, 300 mg glucuronolactone/30 ml serving. The water activity was 0.95; water content was 86% and pH of 2.90. […] Products were filled into 30 ml HDPE bottles and capped.
For each formulation, 1000 g batches were made. Milk fat and cocoa butter were weighted up and pre-blended at the specified amounts, then heated up to 130 F in a processing vessel. Water, mono and diglycerides, sugar, glycerin, cocoa powder and other optional ingredients were added Caffeine, theobromine, glucuronolactone, taurine and N acetyl L-tyrosine were mixed in. The admixture was heated up to 170-180 F for about 5 minutes and then cooled to 100 F. The water activity was adjusted to 0.85 or lower by the addition of glycerin. The entire admixture was homogenized at 1,000 psi for example 3A and at to 3,000 psi for example 3B and 3C. […] Water activity readings were 0.81, 0.82 and 0.72 for example 3A, 3B and 3C respectively. The pH readings were 5.8, 5.3 and 6.7 for example 3A, 3B and 3C respectively. Viscosity readings were 110, 170 and 250 centipoise for example 3A, 3B and 3C respectively.

In the case of `Cn1c(=O)c2c(ncn2C)n(C)c1=O` [caffeine, reference compound], the “impact is felt in” value in series [1] was 15 to 30 min.

On to Phosphatidylcholine, for which, in series [2], the “fat / lipid solubility” value was “only lipid soluble” and the water solubility entry was “not water soluble”.

Turning to Phosphatidylserine [PS], in series [2], the “fat / lipid solubility” value is listed as “only lipid soluble” and the water solubility entry is “not water soluble”.

As to `Cn1cnc2c1c(=O)[nH]c(=O)n2C` [theobromine], the precipitation of theobromine entry in series [3] is “not precipitated”. Moreover, the half-life in series [1] is 7 to 12 h. The water solubility result in series [2] was “not water soluble”.

The record behind these values is patent publication US20180236016A1, “NEUROTRANSMITTER AND BRAIN MODULATING ORAL DELIVERY SYSTEM FOR ENHANCEMENT OF COGNITIVE FUNCTIONS AND ENERGY” (Steady Nutrition LLC, priority 2017, published 2018).
